# Data as given in article PMC6287599, “2,6-Bis(2-Benzimidazolyl)Pyridine (BBP) Is a Potent and Selective Inhibitor of Small Conductance Calcium-Activated Potassium (SK) Channels” (Frontiers in Pharmacology, 2018).
# Entries after “also recorded” stand apart in the source; their conditions may differ.
# Target: T1, Kv4.3/KCHIP2 (Homo sapiens, UniProt Q9UK17)
# T1 sequence (Q9UK17 1-655): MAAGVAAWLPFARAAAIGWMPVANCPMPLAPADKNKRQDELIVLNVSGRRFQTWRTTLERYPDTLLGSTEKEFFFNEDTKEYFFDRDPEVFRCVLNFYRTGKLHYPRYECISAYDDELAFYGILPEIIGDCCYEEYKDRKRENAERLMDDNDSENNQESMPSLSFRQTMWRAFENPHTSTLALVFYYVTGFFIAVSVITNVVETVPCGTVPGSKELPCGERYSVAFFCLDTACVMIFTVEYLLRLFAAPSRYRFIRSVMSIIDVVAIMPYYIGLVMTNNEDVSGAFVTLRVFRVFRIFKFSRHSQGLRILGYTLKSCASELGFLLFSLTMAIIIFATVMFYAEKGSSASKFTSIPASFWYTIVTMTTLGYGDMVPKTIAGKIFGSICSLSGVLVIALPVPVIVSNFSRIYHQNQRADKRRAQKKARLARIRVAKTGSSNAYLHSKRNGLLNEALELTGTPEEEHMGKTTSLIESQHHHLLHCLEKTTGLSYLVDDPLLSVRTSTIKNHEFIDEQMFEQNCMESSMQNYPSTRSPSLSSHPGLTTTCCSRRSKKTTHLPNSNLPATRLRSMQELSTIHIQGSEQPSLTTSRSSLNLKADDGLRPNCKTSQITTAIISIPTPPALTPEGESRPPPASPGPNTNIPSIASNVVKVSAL
# T1 sequence (Q9NS61 1-270 partner): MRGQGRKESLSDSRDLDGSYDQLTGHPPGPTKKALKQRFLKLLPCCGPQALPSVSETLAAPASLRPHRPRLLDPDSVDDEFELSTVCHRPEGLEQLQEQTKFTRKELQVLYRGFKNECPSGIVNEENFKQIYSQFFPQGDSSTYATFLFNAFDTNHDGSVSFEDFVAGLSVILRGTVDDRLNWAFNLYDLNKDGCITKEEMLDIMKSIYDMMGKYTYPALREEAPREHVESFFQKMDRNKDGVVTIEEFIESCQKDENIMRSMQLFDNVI
# Test: Two-electrode voltage clamp in Xenopus laevis oocytes, Kv4.3/KCHIP2
# Assay type: cell-based
# Conditions: BBP 10 μM, TEVC, n = 5
# Procedure: cRNA was prepared from linearized plasmids using the mMESSAGE mMACHINE T7 kit (Ambion, USA) and quantified by UV spectroscopy (NanoDrop, Thermo Scientific, Wilmington, USA). Xenopus laevis oocytes were acquired from EcoCyte Bioscience (Castrop-Rauxel, Germany). Oocytes were injected with 50 nL cRNA and currents were recorded after 2 days of incubation at 19°C. Currents were recorded at a sampling rate of 10 kHz using a TEVC amplifier (Dagan CA-1B; IL, USA), and borosilicate glass recording electrodes (Module Ohm, Herlev, Denmark), made with a DMZ Universal Puller (Zeitz Instruments, Martinsried, Germany) with a resistance of 0.5–1 MΩ when filled with 2 M KCl. Oocytes were superfused with Kulori (pH 7.4) solution containing NaCl 90 mM, KCl 4 mM, MgCl2 1 mM, CaCl2 1 mM, 4-(2-hydroxyethyl)-1-piperazineethanesulfonic acid 5 mM, and currents were elicited with the voltage protocols previously indicated (Skarsfeldt et al., [2016]), from a holding potential of −80 mV. […]
# To assess the effect of BBP on other calcium-activated potassium channels (hBK, hSK3 WT, rSK3 H491N, and hIK), each individual current was first normalized to its cell size using membrane's capacitance (pA/pF) before statistical analysis. […] Statistical significance between saline and the effect of both BBP and the corresponding reference compound was determined for each channel using one-way ANOVA analysis. […]
structure (smiles),measurement,value
"c1cc(-c2nc3ccccc3[nH]2)nc(-c2nc3ccccc3[nH]2)c1 [BBP, 2,6-Bis(2-benzimidazolyl)pyridine]",Effect on Kv4.3/KCHIP2 current,did not have any effect; also recorded: did not significantly affect
